Data reported in article PMC11921146, “Heterologous production of corosolic acid, a phyto-insulin, in agroinfiltrated Nicotiana benthamiana leaves” (Plant Biotechnology, 2024).

How the values were obtained:
Assay in all cases: transient co-expression in N. benthamiana leaves, GC-MS of leaf extracts
Format in all cases: cell-based
Details in all cases: alpha-amyrin formed in situ by BfOSC3; co-expressed AtHMGR1cd-S577A and LjCPR2; C-28 oxidation
MtCYP716A12 [1] = molecular target: T1, MtCYP716A12 (Medicago truncatula, UniProt Q2MJ20, D122Q/Q358P)
T1 construct: gene CYP716A12; full-length; transient expression in N. benthamiana leaves (pBYR2HS)
T1 sequence (Q2MJ20 whole entry D122Q/Q358P, the tested form may be a part): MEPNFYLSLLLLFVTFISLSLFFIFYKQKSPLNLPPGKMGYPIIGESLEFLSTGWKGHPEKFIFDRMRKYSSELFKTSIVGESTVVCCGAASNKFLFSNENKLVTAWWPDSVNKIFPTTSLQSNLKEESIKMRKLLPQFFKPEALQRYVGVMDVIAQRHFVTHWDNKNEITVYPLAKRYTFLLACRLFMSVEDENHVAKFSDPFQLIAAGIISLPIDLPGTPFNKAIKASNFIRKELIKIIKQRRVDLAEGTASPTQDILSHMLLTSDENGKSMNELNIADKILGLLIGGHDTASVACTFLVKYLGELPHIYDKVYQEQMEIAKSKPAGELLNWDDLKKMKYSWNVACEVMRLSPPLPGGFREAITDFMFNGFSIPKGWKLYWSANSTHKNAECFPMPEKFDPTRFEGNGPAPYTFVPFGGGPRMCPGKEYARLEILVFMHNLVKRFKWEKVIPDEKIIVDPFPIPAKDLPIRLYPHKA

OeCYP716A48 = molecular target: T2, OeCYP716A48 (Olea europaea, UniProt A0A090AQE0)
T2 construct: gene CYP716A48; full-length; transient expression in N. benthamiana leaves (pBYR2HS)
T2 sequence (A0A090AQE0 entry or part of it): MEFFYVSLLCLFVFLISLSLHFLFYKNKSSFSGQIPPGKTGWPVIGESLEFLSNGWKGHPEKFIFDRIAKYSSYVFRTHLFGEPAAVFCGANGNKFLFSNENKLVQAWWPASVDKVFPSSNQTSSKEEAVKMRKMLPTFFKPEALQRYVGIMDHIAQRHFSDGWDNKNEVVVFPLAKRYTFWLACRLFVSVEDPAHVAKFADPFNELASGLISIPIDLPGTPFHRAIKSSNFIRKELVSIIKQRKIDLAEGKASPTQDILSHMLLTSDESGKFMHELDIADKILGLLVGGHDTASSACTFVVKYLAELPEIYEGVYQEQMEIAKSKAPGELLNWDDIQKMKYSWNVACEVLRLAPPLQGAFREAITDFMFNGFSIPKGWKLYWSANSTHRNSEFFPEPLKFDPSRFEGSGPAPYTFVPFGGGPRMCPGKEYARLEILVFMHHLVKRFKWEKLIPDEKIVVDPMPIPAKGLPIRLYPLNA

MtCYP716A12 [2] = molecular target: T3, MtCYP716A12 (Medicago truncatula, UniProt Q2MJ20)
T3 construct: gene CYP716A12; full-length; transient expression in N. benthamiana leaves (pBYR2HS)
T3 sequence (Q2MJ20 whole entry, the tested form may be a part): as the sequence (Q2MJ20 whole entry D122Q/Q358P, the tested form may be a part) above, with Q122D, P358Q counted along it

MtCYP716A12 [3] = molecular target: T4, MtCYP716A12 (Medicago truncatula, UniProt Q2MJ20, D122Q)
T4 construct: gene CYP716A12; full-length; transient expression in N. benthamiana leaves (pBYR2HS)
T4 sequence (Q2MJ20 whole entry D122Q, the tested form may be a part): as the sequence (Q2MJ20 whole entry D122Q/Q358P, the tested form may be a part) above, with P358Q counted along it

**Q.** With `C[C@H]1[C@H](C)CC[C@]2(C)CC[C@]3(C)C(=CC[C@@H]4[C@@]5(C)CC[C@H](O)C(C)(C)[C@@H]5CC[C@]43C)[C@H]12` [compound 1, α-amyrin] as the compound, how does the “transient co-expression in N. benthamiana leaves, GC-MS of leaf extracts” value (“transient co-expression” for short) (MtCYP716A12 [1]) read?
**A.** each of the candidate CYP716As were mixed and infiltrated into N. benthamiana leaves

**Q.** What about the “transient co-expression” value (OeCYP716A48) of the same compound?
**A.** each of the candidate CYP716As were mixed and infiltrated into N. benthamiana leaves

**Q.** And the “transient co-expression” value (MtCYP716A12 [2])?
**A.** detected in the leaves expressing wild-type MtCYP716A12

**Q.** And the “transient co-expression” value (MtCYP716A12 [3])?
**A.** each of the candidate CYP716As were mixed and infiltrated into N. benthamiana leaves
